These results are taken from ChEMBL document CHEMBL5113375, “Development of Mcl-1 inhibitors for cancer therapy” (Eur J Med Chem, 2021).

Assay [1] addresses Apoptosis regulator Bcl-2/Bcl-2 homologous antagonist/killer (Homo sapiens, UniProt P10415+Q16611). The experiment in a line: Inhibition of Bcl-2/Bak (unknown origin). It counts as protein assay.
In the next assay the target is T1, BCL2A1/BAK1 (Homo sapiens, UniProt Q16548+Q16611).
T1 sequence (Q16611 whole entry): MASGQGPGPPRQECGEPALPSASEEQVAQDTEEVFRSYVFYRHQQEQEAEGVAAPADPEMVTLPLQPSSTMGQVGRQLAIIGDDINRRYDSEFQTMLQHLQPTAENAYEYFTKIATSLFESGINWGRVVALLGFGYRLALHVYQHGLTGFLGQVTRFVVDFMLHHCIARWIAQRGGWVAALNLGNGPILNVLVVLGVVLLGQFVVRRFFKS
T1 sequence (Q16548 whole entry): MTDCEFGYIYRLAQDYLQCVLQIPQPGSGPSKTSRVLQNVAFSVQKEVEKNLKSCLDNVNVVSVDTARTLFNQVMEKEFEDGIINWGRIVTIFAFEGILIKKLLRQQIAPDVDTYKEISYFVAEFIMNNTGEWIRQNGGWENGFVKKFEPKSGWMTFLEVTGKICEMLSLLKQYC
The experiment in a line: Inhibition of Bfl-1/Bak (unknown origin). It counts as protein assay.

Assay [2] concerns the target T2, Bcl-xL/BH3-interacting domain death agonist (Homo sapiens, UniProt Q07817). Description: Inhibition of Bcl-xL/Bid (unknown origin) by fluorescence polarization assay. It is filed as protein assay. Background: Polarisation of emitted light reports the rotation of a fluorescent probe.
For assay [3], the target named is T3, Induced myeloid leukemia cell differentiation protein Mcl-1 (Homo sapiens, UniProt Q07820). The experiment in a line: Binding affinity to Mcl-1 (unknown origin).
Assay [4] concerns the target T4, Induced myeloid leukemia cell differentiation protein Mcl-1/BH3-interacting domain death agonist (Homo sapiens, UniProt Q07820). The experiment in a line: Inhibition of Mcl-1/Bid (unknown origin) by fluorescence polarization assay. It is filed as protein assay.
A further assay has as its target T5, BCL2L2/BID (Homo sapiens, UniProt P55957+Q92843).
T5 sequence (Q92843 whole entry): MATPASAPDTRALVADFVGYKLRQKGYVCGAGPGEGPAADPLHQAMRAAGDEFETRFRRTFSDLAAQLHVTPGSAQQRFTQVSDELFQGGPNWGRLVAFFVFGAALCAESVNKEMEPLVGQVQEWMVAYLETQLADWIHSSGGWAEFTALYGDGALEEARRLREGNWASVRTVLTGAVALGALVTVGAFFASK
T5 sequence (P55957 whole entry): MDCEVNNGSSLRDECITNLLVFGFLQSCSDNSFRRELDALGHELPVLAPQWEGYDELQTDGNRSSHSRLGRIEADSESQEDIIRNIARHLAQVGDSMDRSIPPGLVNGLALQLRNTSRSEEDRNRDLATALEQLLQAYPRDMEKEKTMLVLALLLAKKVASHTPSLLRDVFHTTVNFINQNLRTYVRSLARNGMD
Description: Binding affinity to Bcl-W/Bid (unknown origin) by fluorescence polarization assay. It is filed as protein assay.

Assay [5] concerns the target T2, Bcl-xL/BH3-interacting domain death agonist. Description: Inhibition of Bcl-xL/Bid complex (unknown origin). It counts as protein assay.
The target in the next assay is BCL2/BID (Homo sapiens, UniProt P10415). Description: Binding affinity to Bcl-2/Bid (unknown origin) by fluorescence polarization assay. It counts as protein assay.
Assay [6] addresses T3, Induced myeloid leukemia cell differentiation protein Mcl-1. Description: Binding affinity to Mcl-1 (unknown origin) assessed as inhibition constant by fluorescence polarization assay.
Assay [7] addresses T2, Bcl-xL/BH3-interacting domain death agonist. Description: Binding affinity to Bcl-xL/Bid (unknown origin) by fluorescence polarization assay. It counts as protein assay.
The next assay concerns the target T6, BCL2A1/BID (Homo sapiens, UniProt Q16548).
T6 sequence (Q16548 whole entry): T1 sequence (Q16548 whole entry)
T6 sequence (P55957 whole entry): T5 sequence (P55957 whole entry)
Description: Binding affinity to Bfl-1/Bid (unknown origin) by fluorescence polarization assay. It counts as protein assay.

Assay [8] addresses T4, Induced myeloid leukemia cell differentiation protein Mcl-1/BH3-interacting domain death agonist. The experiment in a line: Binding affinity to Mcl-1/Bid (unknown origin) assessed as inhibition constant by fluorescence polarization assay. It is filed as protein assay.
Assay [9] concerns the target T7, MCL1-BAK1 complex (Homo sapiens, UniProt Q07820). The experiment in a line: Inhibition of Mcl-1/Bak (unknown origin) by fluorescence polarization assay. It counts as protein-complex assay.
The target of assay [10] is T7, MCL1-BAK1 complex. Description: Binding affinity to Mcl-1/Bak (unknown origin) assessed as inhibition constant by fluorescence polarization assay. It counts as protein-complex assay.
For assay [11], the target named is T8, Bcl-xL/BAK (Homo sapiens, UniProt Q07817). The experiment in a line: Binding affinity to Bcl-xL/Bak (unknown origin) assessed as dissociation constant by ITC method. It counts as protein assay. A general note: In ITC the heat of successive injections is recorded.
The target of assay [12] is T8, Bcl-xL/BAK. Description: Inhibition of Bcl-xL/Bak (unknown origin) by fluorescence polarization assay. It is filed as protein assay.
In assay [13] the target is T9, Induced myeloid leukemia cell differentiation protein Mcl-1/Bcl-2-like protein 11 (Homo sapiens, UniProt Q07820). The experiment in a line: Inhibition of Mcl-1/Bim (unknown origin) by ELISA method. It is filed as protein assay. A general note: ELISA stands for enzyme-linked immunosorbent assay.
In assay [14] the target is T10, Bcl-xL/Bcl-2-like protein 11 (Homo sapiens, UniProt Q07817). Description: Inhibition of Bcl-xL/Bim (unknown origin) by ELISA method. It is filed as protein assay.
Assay [15] can be described thus: Induction of apoptosis in Mcl-1 dependent […] cells treated for 48 hrs by Annexin V-FITC staining based flow cytometric analysis. Particulars: Mus musculus, H22, 48 h. It counts as functional, cell-based.
For another assay, the system named is MCF7. Description: Induction of apoptosis in Bcl-2 dependent human MCF7 cells treated for 48 hrs by Annexin V-FITC staining based flow cytometric analysis. The following applies: MCF7, 48 h. It counts as functional, cell-based.
In assay [16] the target is T3, Induced myeloid leukemia cell differentiation protein Mcl-1. Description: Binding affinity to wildtype Mcl-1 (unknown origin) assessed as dissociation constant by SPR analysis.
Assay [17] can be described thus: Binding affinity to Mcl-1 H224A (unknown origin) assessed as dissociation constant by SPR analysis. Also on record: species or system Homo sapiens.
For assay [18], the target named is T4, Induced myeloid leukemia cell differentiation protein Mcl-1/BH3-interacting domain death agonist. The experiment in a line: Binding affinity to Mcl-1/Bid (unknown origin) by fluorescence polarization assay. It counts as protein assay.
Assay [19] has as its target T9, Induced myeloid leukemia cell differentiation protein Mcl-1/Bcl-2-like protein 11. Description: Inhibition of GST-tagged Mcl-1/Bim (unknown origin) incubated for 15 mins followed by Bim addition measured after 2 hrs by ELISA method. It is filed as protein assay.
In assay [20] the target is T10, Bcl-xL/Bcl-2-like protein 11. The experiment in a line: Inhibition of GST-tagged Bcl-xL/Bim (unknown origin) incubated for 15 mins followed by Bim addition measured after 2 hrs by ELISA method. It is filed as protein assay.
Assay [21] has as its target T8, Bcl-xL/BAK. Description: Inhibition of Bcl-xL/Bak (unknown origin). It counts as protein assay.
Assay [22] concerns the target T7, MCL1-BAK1 complex. Description: Inhibition of Mcl-1/Bak (unknown origin). It counts as protein-complex assay.

Several values for one entry are separate records, joined by “and”; a condition that tells them apart may be missing. Identical values can stand only once. Some results are limits rather than exact numbers.

A word on the IC50: it is the concentration at which inhibition is half-maximal. A high value points to a need for much substance. The Ki is a measure of affinity in units of concentration, obtained from inhibition or displacement. Broadly, the Kd is the free concentration of one partner at which half of the binding sites on the other are occupied at equilibrium, for simple one-to-one binding.

T2 sequence (Q07817 whole entry, one chain of several, the tested form may be a part): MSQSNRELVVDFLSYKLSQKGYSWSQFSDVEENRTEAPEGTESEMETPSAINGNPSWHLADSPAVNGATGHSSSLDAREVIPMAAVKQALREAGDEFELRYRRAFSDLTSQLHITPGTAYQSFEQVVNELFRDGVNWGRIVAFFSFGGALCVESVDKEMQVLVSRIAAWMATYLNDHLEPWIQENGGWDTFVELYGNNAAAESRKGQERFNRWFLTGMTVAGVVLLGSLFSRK
T10 sequence (Q07817 whole entry): as the sequence (Q07817 whole entry, one chain of several, the tested form may be a part) above
T10 sequence (O43521 whole entry, further chain): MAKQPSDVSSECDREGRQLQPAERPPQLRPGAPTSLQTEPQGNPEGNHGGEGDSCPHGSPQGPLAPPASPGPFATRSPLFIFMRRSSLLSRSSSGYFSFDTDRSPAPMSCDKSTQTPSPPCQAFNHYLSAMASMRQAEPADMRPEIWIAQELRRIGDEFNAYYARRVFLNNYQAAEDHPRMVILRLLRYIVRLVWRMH
T8 sequence (Q07817 whole entry, one chain of several): as the sequence (Q07817 whole entry, one chain of several, the tested form may be a part) above
T4 sequence (Q07820 whole entry, one chain of several, the tested form may be a part): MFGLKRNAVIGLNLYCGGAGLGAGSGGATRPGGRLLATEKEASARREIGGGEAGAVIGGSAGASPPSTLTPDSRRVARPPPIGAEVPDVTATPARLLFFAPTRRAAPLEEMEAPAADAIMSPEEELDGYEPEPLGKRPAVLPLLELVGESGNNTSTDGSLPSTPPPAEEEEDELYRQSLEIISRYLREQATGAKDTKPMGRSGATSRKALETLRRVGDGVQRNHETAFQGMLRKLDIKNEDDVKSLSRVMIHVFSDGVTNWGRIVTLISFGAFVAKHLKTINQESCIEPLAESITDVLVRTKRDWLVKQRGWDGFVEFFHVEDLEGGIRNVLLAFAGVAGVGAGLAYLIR
T7 sequence (Q07820 whole entry, one chain of several): as the sequence (Q07820 whole entry, one chain of several, the tested form may be a part) above
T9 sequence (Q07820 whole entry): as the sequence (Q07820 whole entry, one chain of several, the tested form may be a part) above
T9 sequence (O43521 whole entry, further chain): as the sequence (O43521 whole entry, further chain) above
T3 sequence (Q07820 whole entry, the tested form may be a part): as the sequence (Q07820 whole entry, one chain of several, the tested form may be a part) above
Sequence of Apoptosis regulator Bcl-2/Bcl-2 homologous antagonist/killer (P10415 whole entry, one chain of several): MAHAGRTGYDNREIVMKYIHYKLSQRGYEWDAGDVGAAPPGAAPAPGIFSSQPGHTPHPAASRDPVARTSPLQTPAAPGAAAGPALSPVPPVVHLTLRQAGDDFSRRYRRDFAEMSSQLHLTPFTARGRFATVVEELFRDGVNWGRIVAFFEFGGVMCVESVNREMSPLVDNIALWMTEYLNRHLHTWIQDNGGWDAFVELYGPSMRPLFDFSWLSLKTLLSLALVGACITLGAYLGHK
Sequence of BCL2/BID (P10415 whole entry, one chain of several): as above

Turning to `CC1=C(C2=C(C)C(=O)c3c(cc(O)c(O)c3Cc3ccccc3)C2=O)C(=O)c2cc(O)c(O)c(Cc3ccccc3)c2C1=O`, the half-inhibitory concentration (IC50) in [1] came to 31 µM; against BCL2A1/BAK1, 25 µM.

Turning to `CC1=C(C2=C(C)C(=O)c3c(cc(O)c(O)c3C(C)C)C2=O)C(=O)c2cc(O)c(O)c(C(C)C)c2C1=O`, the IC50 in assay [2] worked out at 0.66 µM; in assay [4], 0.025 µM. Also, the Ki in assay [3] was 25 µM.

In the case of `O=C(O)CSc1cc(NS(=O)(=O)c2cccs2)c2ccccc2c1O`, the affinity at BCL2L2/BID corresponds to a Ki of 37.5 µM.

In assay [5], `Cc1cs/c(=N\C2CCCCC2)n1/N=C/c1ccc(O)c(O)c1O` gave an IC50 greater than 50 µM.

For the compound `O=C(O)CSc1cc(NS(=O)(=O)c2cccc(Br)c2)c2ccccc2c1O`, the Ki on BCL2/BID amounted to 23.8 µM; in assay [6], 0.18 µM; in assay [7] it was 33 µM; on BCL2A1/BID, 5.33 µM; in assay [8], 0.49 µM; at BCL2L2/BID, 8.19 µM.

`CC(C)C(C(=O)O)N1C(=O)/C(=C/c2ccc(Br)cc2)SC1=S` (stereo unspecified): the IC50 was 110 µM on MCL1-BAK1 complex [9] and 91 µM against Bcl-xL/BAK [12]. For the same compound, at MCL1-BAK1 complex [10], the Ki is 44 µM. Besides, at Bcl-xL/BAK [11], the equilibrium dissociation constant (Kd) is 8.7 µM.

With `O=C(c1ccccc1O)c1[nH]c(Cl)c(Cl)c1-n1c(C(=O)c2ccccc2O)cc(Cl)c1Cl`, the IC50 in [13] is 12.7 µM and 12.5 µM; in assay [14], 19.7 µM and 12 µM.

In the case of `O=C(O)c1cc2ccccc2n1S(=O)(=O)c1ccc(OCc2cccc(Cl)c2)cc1`, the IC50 stood at 9.2 µM in assay [15] and 19.2 µM with MCF7.

`N#CC1=C(C#N)c2ccc(Sc3ccc(Br)cc3)c3cccc(c23)C1=O`: the Kd was found to be 0.43 µM in assay [16] and 0.41 µM in [17].

Consider `O=C(NCCNS(=O)(=O)c1sccc1-c1ccccc1Oc1ccc(O)c(O)c1)Nc1cc(C(F)(F)F)cc(C(F)(F)F)c1`, for which the Ki on BCL2/BID is 1.2 µM; in assay [6], 0.298 µM; in assay [18] it was 0.33 µM.

`CCOC(=O)CSc1ccc(C(=O)c2[nH]c(Cl)c(Cl)c2-n2cc(Cl)c(Cl)c2C(=O)c2ccc(SCC(=O)OCC)cc2O)c(O)c1`: the figures for the half-inhibitory concentration (IC50) in [19] and in [20] were 1.8 µM and 1.2 µM, respectively.

Consider `C[n+]1cc2cc3c(cc2c2ccc4cc5c(cc4c21)OCO5)OCO3`, for which the 50% inhibitory concentration (IC50) at MCL1-BAK1 complex [9] was 44 µM; at Bcl-xL/BAK [12], 19 µM.

As for `Cc1cc2c(O)c(-c3ccc4c(C(=O)NCC(C)c5ccccc5)c(O)c(O)cc4c3O)c(C)cc2c(C(=O)NCC(C)c2ccccc2)c1C` (stereo unspecified), the IC50 was determined as 0.32 µM in assay [1], 0.31 µM at Bcl-xL/BAK [21], 0.2 µM against BCL2A1/BAK1 and 0.62 µM against MCL1-BAK1 complex [22].

As to `COc1ccc(CSc2ccc(C(=O)c3[nH]c(Cl)c(Cl)c3-n3cc(Cl)c(Cl)c3C(=O)c3ccc(SCc4ccc(OC)cc4)cc3O)c(O)c2)cc1`, the IC50 amounted to 0.7 µM in [19] and 0.6 µM in [20].
